According to patent US20190202836A1, “SELECTIVE DUAL INHIBITORS OF PI3 DELTA AND GAMMA PROTEIN KINASES” (Rhizen Pharmaceuticals SA, priority 2014, published 2019):

Experiments:
TNFα = experiment: Assay 6A: Cytokine assay in human PBMC, LPS induced TNFα; assay type: cell-based; settings: LPS 1 μg/ml, 6 hours, 2-3 independent experiments, read-out: EC50, antigen-induced TNFα
Protocol: (§1) The objective of this study was to assess the inhibitory potential of Compound A1 on antigen-induced cytokine release in human PBMC
(§2) • Heparinized human whole blood was diluted 1:1 with PBS, over laid on leukocyte separation medium and centrifuged at 400 g for 40 minutes. • Buffy layer was removed and washed with PBS • 0.15*10^6 of PBMCs were plated in 100 μl per well in RPMI media and incubated for 2 h. • 50 μl of 3× of the compound dilution in media was added and incubated for 15 min. • TNFα—induced with 50 μl of LPS in RPMI such that final concentration was 1 μg/ml. Supernatant was collected at 6 hours. • IL-2-induced with 50 μl of PHA in RPMI such that final concentration was 20 μg/ml. Supernatant was collected at 24 hours. • IL-4-induced with 50 μl of PHA in RPMI such that final concentration was 20 μg/ml.
(§3) EC50 values were calculated from 2-3 independent experiments.

[1] = Plasma protein binding (equilibrium dialysis), dog; assay type: in vitro ADME; settings: pH 7.4, 37° C.
Protocol: Below is provided the procedure for measuring plasma protein binding (using an equilibrium dialysis method). 745 μL of plasma was transferred into a 2 ml micro centrifuge tube. To that 5 μL of Compound A1 (150 μM) was added. Samples were mixed in the table top vortexer for 2 minutes. 50 μL plasma (n=2) was transferred in a pre-labeled 1.5 mL micro centrifuge tube treated as 0 hour sample.
The remaining 650 μL plasma sample were incubated for 30 minutes at 37° C. in a water bath. After 30 minute incubation, 50 μL plasma (n=2) was removed in a pre-labelled 1.5 mL micro centrifuge tube treated as 0.5 hour sample. 200 μL of the plasma sample (n=2) was transferred into the sample chamber which was indicated by the red ring. The red insert was placed into the base plate and 350 μL of buffer was transferred into the buffer chamber. Plates were incubated at 37° C. at approximately 100 RPM on an orbital shaker or 20 RPM on an up-and-down shaker for 4 hours. 50 μL of post dialysis-sample from the buffer and the plasma chambers were transferred into a pre-labelled micro centrifuged tube. 50 μL of plasma was added to the buffer samples and an equal volume of buffer (KH2PO4 Buffer pH 7.4) to the collected plasma samples. 150 μL of methanol containing internal standard (Tolbutamide 250 ng/ml) was added to precipitate the protein and release compound. […]

[2] = test system: pAKT in T-lymphoma (MOLT-4, Jurkat, CCRF-CEM and Hut-78) cell lines; experiment: Assay 3: Inhibition of AKT phosphorylation in leukemic cell lines; assay type: cell-based; settings: 48 hours, Western Blotting, range over the cell lines, read-out: EC50, reduction in pAKT expression
Protocol: MOLT-4, Jurkat, CCRF-CEM, and Hut-78 cells were incubated with desired concentrations of compound for 48 hours. Cells were lysed and pAKT determined by Western Blotting. Bands were quantified using ImageJ and normalized to actin.

PI3K gamma = target: T1, PI3K gamma (Mus musculus, UniProt Q9JHG7); experiment: Assay 4A3: c5a induced AktS473 phosphorylation in RAW 264.7 macrophages; assay type: cell-based; settings: c5a 50 ng/ml, read-out: Cellular IC50 PI3K gamma (c5a induced pAKT in RAW macrophages)
T1 construct: endogenous in cells; host or cells: RAW 264.7 macrophages
Protocol: The objective of this study was to determine the effect of Compound A1 on PI3Kγ kinase mediated c5a induced AktS473 phosphorylation in RAW 264.7 macrophages.
RAW 264.7 cells were treated with desired concentrations of the test compound for 15 minutes. 1 ml of 2× c5a was added such that the final concentration was 50 ng/ml and incubated for 15 minutes.
Media was discarded and washed with 1 ml of ice-cold 1× PBS.
250 μl of cell lysis buffer was added and incubated on ice for 30 minutes.
Samples were centrifuged and supernatant was stored at −80° C. until analysis
Samples were analyzed by Western Blotting using pAKT (S473) as the primary and anti-rabbit IgG-HRP as a secondary antibody.
Intensity of the bands was determined using ImageJ 1.42q (NIH, USA) and normalized to Actin (loading control). Data was plotted using GraphPad Prism (Version 5.02).

[3] = Metabolic stability in human liver microsomes; assay type: in vitro ADME; settings: 1 μM test item, 60 minutes, 37° C., NADPH
Protocol: Metabolic stability studies were conducted on Compounds A, A1, and A2 as well as Example 128 of WO 2012/151525 using mouse, rat, dog, monkey, and human liver microsomes. The protocol for the studies with mouse, rat, and human liver microsomes (all from BD Gentest, USA) is provided below. 0.4 mg protein was preincubated with 2 mM NADPH (cofactor) in phosphate buffer (pH-7.4) for 15 minutes at 37° C. and then added with 1 μM test item and incubated further for 60 minutes in triplicate. The reaction mixture was terminated with methanol containing an internal standard and centrifuged further to analyze the test item remaining in the supernatant by LC-MS/MS. The percent parent compound remaining was calculated in comparison with similar samples terminated at 0 minutes.

IL-4 = experiment: Assay 6A: Cytokine assay in human PBMC, PHA induced IL-4; assay type: cell-based; settings: PHA 20 μg/ml, 48 hours, 2-3 independent experiments, read-out: EC50, antigen-induced IL-4
Protocol: as §1, §2, §3

PI3Kγ = PI3Kγ (Homo sapiens, UniProt P48736); experiment: Assay 1: Fluorescent (HTRF) determination of PI3 kinase enzyme activity, PI3Kγ; assay type: biochemical; settings: read-out: IC50 (nM) PI3Kγ
From the text: Phosphoinositide 3 kinases (PI3K) belong to a class of lipid kinases that play a critical role in the regulation of several key cellular processes. The PI3K are capable of phosphorylating the 3-hydroxy position of phosphoinositols thereby generating second messengers involved in downstream signaling events. The homogenous time resolved fluorescence (HTRF) assay allows detection of 3,4,5-triphosphate (PIPS) formed as a result of phosphorylation of phosphotidylinositol 4,5-biphosphate (PIP2) by PI3K isoforms such as α, β, γ or δ.
PI3K isoform activity for α, β, γ or δ was determined using a PI3K human HTRF™ Assay Kit (Millipore, Billerica, Mass.) with modifications. All incubations were carried out at room temperature. 0.5 μl of 40× inhibitor (in 100% DMSO) or 100% DMSO were added to each well of a 384-well white plate (Greiner Bio-One, Monroe, N.C.) containing 14.5 μl 1× reaction buffer/PIP2 (10 mM MgCl2, 5 mM DTT, 1.38 μM PIP2) mix with or without enzyme, followed by 5 μl/well of 400 μM ATP and incubated for an additional 30 minutes. The reaction was terminated by adding 5 μl/well stop solution (Millipore, Billerica, Mass.). 5 μl of detection mix (Millipore, Billerica, Mass.) was then added to each well and incubated for 6-18 hours in the dark. HRTF ratio was measured on a microplate reader (BMG Labtech., Germany) at an excitation wavelength of 337 nm and emission wavelengths of 665 and 615 nm with an integration time of 400 msec counting delay of 50 msec.

T1 sequence (Q9JHG7 whole entry): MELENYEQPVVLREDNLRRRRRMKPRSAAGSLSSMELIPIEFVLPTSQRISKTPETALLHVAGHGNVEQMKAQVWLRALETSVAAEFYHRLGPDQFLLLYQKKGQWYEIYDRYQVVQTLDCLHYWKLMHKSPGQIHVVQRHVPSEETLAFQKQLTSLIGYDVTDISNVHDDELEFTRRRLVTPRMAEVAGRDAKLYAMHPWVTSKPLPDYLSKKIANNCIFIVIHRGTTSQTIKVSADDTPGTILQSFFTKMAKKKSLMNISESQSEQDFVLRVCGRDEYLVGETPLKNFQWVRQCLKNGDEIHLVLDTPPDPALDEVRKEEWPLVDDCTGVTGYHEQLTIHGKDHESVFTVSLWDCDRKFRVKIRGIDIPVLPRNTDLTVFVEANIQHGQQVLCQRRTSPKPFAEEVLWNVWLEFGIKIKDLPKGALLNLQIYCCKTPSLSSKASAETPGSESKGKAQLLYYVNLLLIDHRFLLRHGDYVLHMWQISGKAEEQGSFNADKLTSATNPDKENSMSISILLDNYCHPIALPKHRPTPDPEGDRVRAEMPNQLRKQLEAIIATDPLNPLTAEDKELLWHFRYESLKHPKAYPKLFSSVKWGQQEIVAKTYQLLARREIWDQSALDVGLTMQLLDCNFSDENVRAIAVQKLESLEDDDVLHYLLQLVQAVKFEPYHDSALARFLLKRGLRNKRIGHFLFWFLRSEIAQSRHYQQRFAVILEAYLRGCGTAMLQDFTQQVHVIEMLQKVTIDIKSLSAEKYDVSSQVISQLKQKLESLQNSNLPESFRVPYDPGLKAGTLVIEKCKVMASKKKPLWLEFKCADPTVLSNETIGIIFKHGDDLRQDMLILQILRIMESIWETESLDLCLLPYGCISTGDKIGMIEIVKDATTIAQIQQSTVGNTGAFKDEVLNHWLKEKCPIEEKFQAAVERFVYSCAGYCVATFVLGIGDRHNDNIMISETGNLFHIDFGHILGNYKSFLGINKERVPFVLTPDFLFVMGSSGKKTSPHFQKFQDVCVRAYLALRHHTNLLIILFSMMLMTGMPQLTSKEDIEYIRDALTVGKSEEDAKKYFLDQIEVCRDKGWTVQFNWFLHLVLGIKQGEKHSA
PI3Kγ, sequence (P48736 whole entry, canonical isoform): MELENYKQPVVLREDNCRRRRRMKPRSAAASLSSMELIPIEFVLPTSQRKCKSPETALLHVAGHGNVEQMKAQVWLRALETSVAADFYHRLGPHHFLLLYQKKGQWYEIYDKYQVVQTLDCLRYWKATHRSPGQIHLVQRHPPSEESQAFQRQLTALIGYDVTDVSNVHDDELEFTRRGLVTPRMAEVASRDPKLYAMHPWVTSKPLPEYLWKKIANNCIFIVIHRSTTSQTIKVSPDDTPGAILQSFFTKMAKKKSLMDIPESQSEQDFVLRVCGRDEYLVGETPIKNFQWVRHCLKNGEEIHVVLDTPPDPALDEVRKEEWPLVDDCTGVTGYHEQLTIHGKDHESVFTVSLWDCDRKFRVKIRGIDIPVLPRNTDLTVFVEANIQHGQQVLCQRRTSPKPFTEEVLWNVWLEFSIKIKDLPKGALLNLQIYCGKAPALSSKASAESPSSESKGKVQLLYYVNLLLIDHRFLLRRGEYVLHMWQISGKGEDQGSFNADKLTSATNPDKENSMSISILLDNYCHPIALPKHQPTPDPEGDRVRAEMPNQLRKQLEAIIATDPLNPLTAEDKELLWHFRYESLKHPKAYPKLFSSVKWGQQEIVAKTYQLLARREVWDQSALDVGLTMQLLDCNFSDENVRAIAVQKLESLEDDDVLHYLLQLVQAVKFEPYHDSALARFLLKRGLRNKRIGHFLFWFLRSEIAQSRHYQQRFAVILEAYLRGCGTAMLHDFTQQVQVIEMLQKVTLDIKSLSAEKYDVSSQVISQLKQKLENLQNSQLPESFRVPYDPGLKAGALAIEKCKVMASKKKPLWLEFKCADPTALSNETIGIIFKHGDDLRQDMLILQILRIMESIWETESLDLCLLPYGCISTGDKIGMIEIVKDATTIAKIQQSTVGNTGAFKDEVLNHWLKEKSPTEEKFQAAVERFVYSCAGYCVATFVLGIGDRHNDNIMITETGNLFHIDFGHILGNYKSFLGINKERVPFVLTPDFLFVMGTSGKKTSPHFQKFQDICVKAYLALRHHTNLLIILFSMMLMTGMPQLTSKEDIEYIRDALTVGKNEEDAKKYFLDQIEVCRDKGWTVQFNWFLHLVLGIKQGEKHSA

EC50 (TNFα): 7.1 nM
fraction unbound at 4 h, 1 μM [1]: 0.0415
EC50 [2]: 20 to 1600 nM
IC50 (PI3K gamma): 51.7 nM
Metabolic stability in liver microsomes (percent parent compound remaining), Human [3]: 95.7%
EC50 (IL-4): 3.5 nM
IC50 (PI3Kγ): 48.7 nM
Compound: COc1ccc(-c2nn([C@@H](C)c3oc4cccc(F)c4c(=O)c3-c3cccc(F)c3)c3ncnc(N)c23)cc1NS(C)(=O)=O [Compound A1, (S)—N-(5-(4-amino-1-(1-(5-fluoro-3-(3-fluorophenyl)-4-oxo-4H-chromen-2-yl)ethyl)-1H-pyrazolo[3,4-d]pyrimidin-3-yl)-2-methoxyphenyl)methanesulfonamide]
